Test results: US3959281A, “Piperazino substituted coumarin derivatives” (Cassella Farbwerke Mainkur Aktiengesellschaft, priority 1968, dated 1976)

How the values were obtained:
[1] = heart rate, continuously measured from systolic peaks of the arterial blood pressure (narcotized dogs, i.v.); format: in vivo; conditions: dog, 0.5 mg./kg. i.v., dihydrochloride
Procedure: With respect to the change in the oxygen tension in the coronary veinous blood, the pharmacological investigation of the vasodilator action on the coronary vessels was carried out in dogs according to the methods described by W.K.A. Schaper and his co-workers (see W.K.A. SCHAPER, R. XHONNEUX, and J.M. BOGAARD "Ueber die kontinuierliche Messung des Sauerstoffdruckes im venoesen Coronarblut" (Naunyn-Schmiedeberg's Arch. exp. Path. u. Pharmak. 245, 383-389 (1963)). The test preparations were applied intravenously to the narcotized and spontaneously breathing animals. On these test conditions the dilatation of the coronary arteries caused by the test substances along with the increase in the coronary blood flow led to an increase in the oxygen tension in the coronary veinous blood. This oxygen tension was measured according to polarographic methods by means of a platin electrode of the Gleichmann-Lubbers type (see U. GLEICHMANN and D.W. LUEBBERS "Die Messung des Sauerstoffdruckes in Gasen and Fluessigkeiten mit der Platin-Elektrode unter besonderer Berucksichtigung der Messung im Blut," Pflugers Arch. 271, 431-455 (1960)). The heart rate was continuously measured by electronic methods from systolic peaks of the arterial blood pressure. […]

coronary vessels = test: vasodilator action on the coronary vessels: change in the oxygen tension in the coronary veinous blood (narcotized dogs, i.v.); format: in vivo; conditions: dog, 0.5 mg./kg. i.v., dihydrochloride
Procedure: (§1) With respect to the change in the oxygen tension in the coronary veinous blood, the pharmacological investigation of the vasodilator action on the coronary vessels was carried out in dogs according to the methods described by W.K.A. Schaper and his co-workers (see W.K.A. SCHAPER, R. XHONNEUX, and J.M. BOGAARD "Ueber die kontinuierliche Messung des Sauerstoffdruckes im venoesen Coronarblut" (Naunyn-Schmiedeberg's Arch. exp. Path. u. Pharmak. 245, 383-389 (1963)). The test preparations were applied intravenously to the narcotized and spontaneously breathing animals. On these test conditions the dilatation of the coronary arteries caused by the test substances along with the increase in the coronary blood flow led to an increase in the oxygen tension in the coronary veinous blood. This oxygen tension was measured according to polarographic methods by means of a platin electrode of the Gleichmann-Lubbers type (see U. GLEICHMANN and D.W. LUEBBERS "Die Messung des Sauerstoffdruckes in Gasen and Fluessigkeiten mit der Platin-Elektrode unter besonderer Berucksichtigung der Messung im Blut," Pflugers Arch. 271, 431-455 (1960)). The heart rate was continuously measured by electronic methods from systolic peaks of the arterial blood pressure. The arterial blood pressure was measured in the known manner in the femoral artery with the aid of an electromanometer of the Statham-strain-gauge type.
(§2) The following table gives the results of the pharmacological investigations which were carried through. The preparations were tested in the form of their respective dihydrochlorides: […]

[2] = arterial blood pressure in the femoral artery (narcotized dogs, i.v.); format: in vivo; conditions: dog, 0.5 mg./kg. i.v., dihydrochloride
Procedure: as §1, §2

LD 50 Mouse = conditions: in vivo, iv, dihydrochloride

Compound	Maximal Change in the Heart Rate [1]	Maximal Change in the Heart Rate ([1]; duration)	Maximal Increase in Oxygen Tension in the Coronary Veinous Blood (coronary vessels)	Maximal Increase in Oxygen Tension in the Coronary Veinous Blood (coronary vessels; duration)	Maximal Change in the Blood Pressure (diastolic) ([2]; diastolic)	Maximal Change in the Blood Pressure ([2]; duration)	Maximal Change in the Blood Pressure (systolic) ([2]; systolic)	LD50 (LD 50 Mouse)
COc1ccc(CN2CCN(CC(Cc3c(C)c4ccc(OC)c(OC)c4oc3=O)OC(=O)c3cc(OC)c(OC)c(OC)c3)CC2)cc1OC (stereo not drawn) [3-[γ-(N-3,4-dimethoxy-benzyl-piperazino)-β-(3,4,5-trimethoxybenzoxy)-propyl]-4-methyl-7,8-dimethoxy-coumarin]	-20%	> 25 min	+60%	> 25 min	-66%	> 25 min	-57%	–
COc1cc(C(=O)OC(Cc2c(C)c3ccc(OC)c(OC)c3oc2=O)CN2CCN(CC(=O)Nc3c(C)cccc3C)CC2)cc(OC)c1OC (stereo not drawn) [3-[γ-{N-(2,6-dimethyl-anilidocarbonylmethyl)-piperazino}-β-(3,4,5-trimethoxybenzoxy)-propyl]-4-methyl-7,8-dimethoxy-courmarin]	–	–	+36%	> 20 min	–	–	–	> 400 mg/kg
